The structures appear in SMILES notation.

For test [1], the system named is BA/F3 (insSVD) cells. In words: Ba/F3 cell survival assay (Cell Titer-Glo), EGFR-insSVD. It counts as cell-based. Conditions: Mus musculus, BaF3, 48 h, without IL-3, with EGF. How it is done: 293T cells from ATCC were transfected with pBABEpuro expression constructs for WT EGFR or EGFR-insSVD, or EGFR-insSVD T790M, and pCL-Eco packaging vector using Fugene-6 transfection reagent from Promega. Plates were incubated at 37° C. for 48 h. Retrovirus was harvested by filtering the media supernatant through a 0.45 μm filter.
Ba/F3 cells purchased from DSMZ were grown in RPMI+10% FBS+10 ng/mL IL-3 and infected with filtered retroviral supernatant at a 1:2 dilution. Polybrene was added to a concentration of 8 μg/mL, plates were spun for 90 min, and incubated for 16 h at 37° C. 2 μg/mL puromycin was added to the infected cells 24 h after infection and cells were continually grown in the presence of puromycin and 10 ng/mL IL-3. Following stably expressing Ba/F3 cell lines were generated: Ba/F3-EGFR-WT, Ba/F3-EGFR-insSVD, Ba/F3-EGFR-insSVD T790M, (Ba/F3-vector-control).
For cell survival assays, Ba/F3 cells were grown to a density of 1-2 million cells per mL, spun down and resuspended in media without IL-3, and replated at a concentration of 200,000-500,000 cells per mL. The cells ectopically expressing WT EGFR, EGFR-insSVD, or EGFR-insSVD T790M were plated with 10 ng/mL Millipore Culture grade EGF. The cells ectopically expressing pBABEpuro empty vector were plated with 10 ng/mL IL-3.
2 days later, cells were plated in 50 μL in a 384 well plate at a concentration of 4000 cells per well for cells assayed in the absence of IL-3 and 2000 cells per well for cells assayed in the presence of IL-3. 100 nL of compound was added to each well using a 100 nL pin head, and plates were incubated at 37° C. for 48 h.
Cell viability was measured by adding 20 μL of Cell Titer-Glo Luminescent Cell Viability Reagent diluted 1:3 in PBS. Plates were sealed with Perkin Elmer Top-Seal, inverted several times to mix, and immediately centrifuged at 1000 rpm for 2 min. Plates were incubated in low light conditions for 8-10 min and luminescence was measured.

Test [2] addresses mutEGFR (D770_N771insNPG, T790). In words: mutEGFR (D770_N771insNPG, T790) kinase assay. Format: biochemical, human.
The target of test [3] is mutEGFR (D770_N771insSVD) (Homo sapiens, UniProt P00533, INS767SVD). In words: Exon20-mutant-EGFR (D770_N771insSVD) TR-FRET kinase assay. It counts as biochemical. Conditions: 2 mM ATP, 15 min preincubation. The text has this: Inhibitory activity of compounds of the present invention against an Epidermal Growth Factor Receptor (EGFR) with an insertion of the amino acids sequence SVD between D770 and N771 (SEQ ID No. 5) was quantified employing the TR-FRET based kinase activity assay as described in the following paragraphs.
A recombinant fusion protein of N-terminal Glutathion-S-Transferase (GST) and a fragment of human EGFR variant (amino acids R669 to A1210 with insertion of the amino acids sequence SVD between D770 and N771 (SEQ ID No. 5) (“EGFR ins SVD”), expressed in Sf9 insect cells and purified via affinity chromatography using Glutathion Sepharose as described above, was used as a kinase. As substrate for the kinase reaction the biotinylated peptide biotin-Ahx-AEEEEYFELVAKKK (C-terminus in amide form) (SEQ ID No. 6) was used which can be purchased e.g. form the company Biosynthan GmbH (Berlin-Buch, Germany).
For the assay 50 nl of a 100-fold concentrated solution of the test compound in DMSO was pipetted into either a black low volume 384 well microtiter plate or a black 1536 well microtiter plate (both Greiner Bio-One, Frickenhausen, Germany), 2 μl of a solution of EGFR in aqueous assay buffer [50 mM Hepes pH 7.0, 10 mM MgCl2, 1 mM dithiothreitol, 0.5 mM EGTA, 0.3 mM activated sodium ortho-vanadate, 0.005% (w/v) bovine serum albumin, 0.005% (v/v) Tween-20] were added and the mixture was incubated for 15 min at 22° C. to allow pre binding of the test compounds to the enzyme before the start of the kinase reaction. […] The concentration of EGFR was adjusted depending of the activity of the enzyme lot and was chosen appropriate to have the assay in the linear range, typical concentration was 15 pg/μl. The reaction was stopped by the addition of 3 μl of a solution of HTRF detection reagents (83.3 nM streptavidine-XL665 [Cisbio Bioassays, Codolet, France] and 1.67 nM PT66-Tb-Cryptate, a terbium-cryptate labelled anti-phospho-tyrosine antibody from Cisbio Bioassays [instead of the PT66 Tb cryptate PT66 Eu Chelate from Perkin Elmer can also be used]) in an aqueous EDTA-solution (133.3 mM EDTA, 0.2% (w/v) bovine serum albumin in 50 mM HEPES pH 7.5).
The resulting mixture was incubated 1 h at 22° C. to allow the binding of the biotinylated phosphorylated peptide to the streptavidine-XL665 and the PT66-Tb-Cryptate. Subsequently, the amount of phosphorylated substrate was evaluated by measurement of the resonance energy transfer from the PT66-Tb-Cryptate to the streptavidine-XL665. Therefore, the fluorescence emissions at 620 nm and 665 nm after excitation at 337 nm were measured in a HTRF reader, e.g. a Pherastar (BMG Labtechnologies, Offenburg, Germany) or a Viewlux (Perkin-Elmer). The ratio of the emissions at 665 nm and at […] was taken as the measure for the amount of phosphorylated substrate. The data were normalised (enzyme reaction without inhibitor=0% inhibition, all other assay components but no enzyme=100% inhibition).
Background: In TR-FRET formats the signal depends on donor and acceptor labels being close together.

Sequence of mutEGFR (D770_N771insSVD) (P00533 with tags, fused parts or gaps INS767SVD limits assumed): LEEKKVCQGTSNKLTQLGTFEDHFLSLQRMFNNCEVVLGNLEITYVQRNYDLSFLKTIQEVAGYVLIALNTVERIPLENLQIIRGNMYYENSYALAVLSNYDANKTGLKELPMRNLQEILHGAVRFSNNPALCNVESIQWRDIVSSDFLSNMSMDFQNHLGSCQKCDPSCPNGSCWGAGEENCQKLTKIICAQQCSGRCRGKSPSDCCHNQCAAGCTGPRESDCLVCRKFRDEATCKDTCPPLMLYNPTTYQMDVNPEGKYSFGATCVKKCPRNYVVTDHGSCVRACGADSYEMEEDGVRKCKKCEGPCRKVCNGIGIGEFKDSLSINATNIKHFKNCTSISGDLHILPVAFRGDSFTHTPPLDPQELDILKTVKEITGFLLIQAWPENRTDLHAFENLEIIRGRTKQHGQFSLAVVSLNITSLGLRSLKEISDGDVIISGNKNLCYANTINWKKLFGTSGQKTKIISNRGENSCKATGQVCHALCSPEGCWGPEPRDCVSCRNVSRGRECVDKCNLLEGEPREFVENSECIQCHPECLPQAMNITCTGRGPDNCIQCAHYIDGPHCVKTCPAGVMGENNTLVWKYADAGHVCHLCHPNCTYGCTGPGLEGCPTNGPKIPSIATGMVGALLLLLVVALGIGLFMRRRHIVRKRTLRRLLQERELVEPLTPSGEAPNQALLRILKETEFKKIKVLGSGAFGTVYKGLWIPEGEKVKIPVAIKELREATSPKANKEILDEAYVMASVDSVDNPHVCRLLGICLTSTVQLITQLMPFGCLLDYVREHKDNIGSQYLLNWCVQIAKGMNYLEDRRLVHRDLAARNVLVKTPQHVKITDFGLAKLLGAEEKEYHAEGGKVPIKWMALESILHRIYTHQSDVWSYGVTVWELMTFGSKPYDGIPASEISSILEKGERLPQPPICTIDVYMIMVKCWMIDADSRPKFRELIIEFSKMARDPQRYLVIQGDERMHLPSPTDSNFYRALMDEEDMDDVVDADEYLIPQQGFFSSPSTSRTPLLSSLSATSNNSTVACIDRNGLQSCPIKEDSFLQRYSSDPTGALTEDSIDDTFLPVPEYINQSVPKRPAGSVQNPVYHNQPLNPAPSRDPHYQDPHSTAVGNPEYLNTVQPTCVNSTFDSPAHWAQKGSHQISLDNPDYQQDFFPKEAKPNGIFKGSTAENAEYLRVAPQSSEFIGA
Sequence of mutEGFR (D770_N771insNPG, T790) (P00533 with tags, fused parts or gaps INS770NPG limits assumed): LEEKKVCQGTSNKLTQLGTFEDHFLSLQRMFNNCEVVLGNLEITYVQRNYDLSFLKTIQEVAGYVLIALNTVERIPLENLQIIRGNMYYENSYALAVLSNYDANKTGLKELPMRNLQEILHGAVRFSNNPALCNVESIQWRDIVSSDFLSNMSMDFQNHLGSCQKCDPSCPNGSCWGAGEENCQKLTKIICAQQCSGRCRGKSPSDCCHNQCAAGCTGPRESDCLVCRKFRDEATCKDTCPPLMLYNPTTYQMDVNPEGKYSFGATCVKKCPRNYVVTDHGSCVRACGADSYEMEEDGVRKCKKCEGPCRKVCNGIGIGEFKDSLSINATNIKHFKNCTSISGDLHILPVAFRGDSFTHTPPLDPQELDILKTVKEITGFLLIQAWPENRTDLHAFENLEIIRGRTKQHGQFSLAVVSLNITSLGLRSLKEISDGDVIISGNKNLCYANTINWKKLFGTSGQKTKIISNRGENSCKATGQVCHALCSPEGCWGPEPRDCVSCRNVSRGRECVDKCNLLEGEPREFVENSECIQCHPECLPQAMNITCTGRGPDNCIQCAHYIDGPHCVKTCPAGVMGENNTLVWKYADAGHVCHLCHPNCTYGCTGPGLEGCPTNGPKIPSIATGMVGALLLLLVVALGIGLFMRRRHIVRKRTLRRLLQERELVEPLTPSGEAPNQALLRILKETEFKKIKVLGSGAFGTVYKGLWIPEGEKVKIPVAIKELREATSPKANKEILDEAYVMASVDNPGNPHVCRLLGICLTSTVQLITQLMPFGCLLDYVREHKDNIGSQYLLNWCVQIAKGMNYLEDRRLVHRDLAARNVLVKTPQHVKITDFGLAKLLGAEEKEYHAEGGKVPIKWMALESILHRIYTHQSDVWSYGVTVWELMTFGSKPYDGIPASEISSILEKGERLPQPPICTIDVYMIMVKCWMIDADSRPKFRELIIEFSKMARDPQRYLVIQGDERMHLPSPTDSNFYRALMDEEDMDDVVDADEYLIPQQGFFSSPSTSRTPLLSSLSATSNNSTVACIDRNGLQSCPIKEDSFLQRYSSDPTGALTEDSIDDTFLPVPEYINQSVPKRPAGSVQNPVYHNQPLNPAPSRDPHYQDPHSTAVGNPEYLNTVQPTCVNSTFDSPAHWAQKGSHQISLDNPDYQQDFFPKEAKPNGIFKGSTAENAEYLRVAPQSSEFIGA

Consider `C=CC(=O)N(C)CCOc1cnccc1-c1[nH]c2cccnc2c1-c1cc(C(F)(F)F)ccc1F` [Example 51, N-{2-[(4-{3-[2-fluoro-5-(trifluoromethyl)phenyl]-1H-pyrrolo[3,2-b]pyridin-2-yl}pyridin-3-yl)oxy]ethyl}-N-methylprop-2-enamide], for which the IC50 (commonly the midpoint of a concentration-inhibition curve) is 1920 nM in test [1], 132 nM in test [2] and 75.6 nM in test [3].
The matching figures for `C=CC(=O)N(C)CCOc1cnccc1-c1[nH]c2cccnc2c1-c1cc(F)cc(F)c1` [Example 52, N-[2-({4-[3-(3,5-difluorophenyl)-1H-pyrrolo[3,2-b]pyridin-2-yl]pyridin-3-yl}oxy)ethyl]-N-methylprop-2-enamide]: 3100 nM, 204 nM and 77.1 nM.
In the same order, the values of `C=CC(=O)N(C)CCOc1cnccc1-c1[nH]c2cccnc2c1-c1ccccc1CC` [Example 53, N-[2-({4-[3-(2-ethylphenyl)-1H-pyrrolo[3,2-b]pyridin-2-yl]pyridin-3-yl}oxy)ethyl]-N-methylprop-2-enamide] are 3270 nM, 744 nM and 112 nM.
`C=CC(=O)N(C)CCOc1cnccc1-c1[nH]c2cccnc2c1-c1cccc(OC)c1` [Example 54, N-[2-({4-[3-(3-methoxyphenyl)-1H-pyrrolo[3,2-b]pyridin-2-yl]pyridin-3-yl}oxy)ethyl]-N-methylprop-2-enamide]: the IC50 is 3960 nM in test [1], 240 nM in test [2] and 118 nM in test [3].
The matching figures for `C=CC(=O)N(C)CCOc1cnccc1-c1[nH]c2cccnc2c1-c1cccc(C(C)C)c1` [Example 55, N-methyl-N-{2-[(4-{3-[3-(propan-2-yl)phenyl]-1H-pyrrolo[3,2-b]pyridin-2-yl}pyridin-3-yl)oxy]ethyl}prop-2-enamide]: 3050 nM, 598 nM and 118 nM.
The matching figures for `C=CC(=O)N(C)CCOc1cnccc1-c1[nH]c2cccnc2c1-c1cc(OC)ccc1F` [Example 56, N-[2-({4-[3-(2-fluoro-5-methoxyphenyl)-1H-pyrrolo[3,2-b]pyridin-2-yl]pyridin-3-yl}oxy)ethyl]-N-methylprop-2-enamide]: 4180 nM, 395 nM and 152 nM.
On to `C=CC(=O)N(C)CCOc1cnccc1-c1[nH]c2cccnc2c1-c1cc(Cl)ccc1Cl` [Example 57, N-[2-({4-[3-(2,5-dichlorophenyl)-1H-pyrrolo[3,2-b]pyridin-2-yl]pyridin-3-yl}oxy)ethyl]-N-methylprop-2-enamide], for which the IC50 in test [1] was determined as 4590 nM; in test [2], 450 nM; in test [3] it was 156 nM.
For the compound `C=CC(=O)N(C)CCOc1cnccc1-c1[nH]c2cccnc2c1-c1cccc(OC(F)(F)F)c1` [Example 58, N-methyl-N-{2-[(4-{3-[3-(trifluoromethoxy)phenyl]-1H-pyrrolo[3,2-b]pyridin-2-yl}pyridin-3-yl)oxy]ethyl}prop-2-enamide], the values for the half-maximal inhibitory concentration (IC50) in test [1], in test [2] and in test [3] were 6280 nM, 1160 nM and 249 nM, respectively.
The matching figures for `C=CS(=O)(=O)N(C)CCOc1cnccc1-c1[nH]c2cccnc2c1-c1cc(C(F)(F)F)ccc1F` [Example 59, N-{2-[(4-{3-[2-fluoro-5-(trifluoromethyl)phenyl]-1H-pyrrolo[3,2-b]pyridin-2-yl}pyridin-3-yl)oxy]ethyl}-N-methylethenesulfonamide]: 76.4 nM, 1.6 nM and 0.499 nM.
The matching figures for `C=CS(=O)(=O)N(C)CCOc1cnccc1-c1[nH]c2cccnc2c1-c1cc(Cl)ccc1F` [Example 60, N-[2-({4-[3-(5-chloro-2-fluorophenyl)-1H-pyrrolo[3,2-b]pyridin-2-yl]pyridin-3-yl}oxy)ethyl]-N-methylethenesulfonamide]: 154 nM, 2.02 nM and 0.809 nM.
For the compound `C=CS(=O)(=O)N(C)CCOc1cnccc1-c1[nH]c2cccnc2c1-c1cc(F)ccc1F` [Example 61, N-[2-({4-[3-(2,5-difluorophenyl)-1H-pyrrolo[3,2-b]pyridin-2-yl]pyridin-3-yl}oxy)ethyl]-N-methylethenesulfonamide], the 50% inhibitory concentration (IC50) in test [1] amounted to 120 nM; in test [2], 2.82 nM; in test [3], 0.872 nM.
Take `C=CS(=O)(=O)N(C)CCOc1cnccc1-c1[nH]c2cccnc2c1-c1ccc2ccsc2c1` [Example 62, N-[2-({4-[3-(1-benzothiophen-6-yl)-1H-pyrrolo[3,2-b]pyridin-2-yl]pyridin-3-yl}oxy)ethyl]-N-methylethenesulfonamide]: the IC50 in test [1] was determined as 326 nM; in test [2] it was 3.3 nM; in test [3], 1.14 nM.
In the same order, the values of `C=CS(=O)(=O)N(C)CCOc1cnccc1-c1[nH]c2cccnc2c1-c1cccc(CC)c1` [Example 63, N-[2-({4-[3-(3-ethylphenyl)-1H-pyrrolo[3,2-b]pyridin-2-yl]pyridin-3-yl}oxy)ethyl]-N-methylethenesulfonamide] are 455 nM, 5.88 nM and 1.44 nM.
With `C=CS(=O)(=O)N(C)CCOc1cnccc1-c1[nH]c2cccnc2c1-c1cc(C)ccc1F` [Example 64, N-[2-({4-[3-(2-fluoro-5-methylphenyl)-1H-pyrrolo[3,2-b]pyridin-2-yl]pyridin-3-yl}oxy)ethyl]-N-methylethenesulfonamide], the IC50 is 92.9 nM in test [1], 2.21 nM in test [2] and 1.47 nM in test [3].
Turning to `C=CS(=O)(=O)N(C)CCOc1cnccc1-c1[nH]c2cccnc2c1-c1cc(C)cc(F)c1` [Example 65, N-[2-({4-[3-(3-fluoro-5-methylphenyl)-1H-pyrrolo[3,2-b]pyridin-2-yl]pyridin-3-yl}oxy)ethyl]-N-methylethenesulfonamide], the IC50 in test [1] was 267 nM; in test [2], 7.22 nM; in test [3] it was 2.48 nM.
The matching figures for `C=CS(=O)(=O)N(C)CCOc1cnccc1-c1[nH]c2cccnc2c1-c1cccc(C(F)(F)F)c1` [Example 66, N-methyl-N-{2-[(4-{3-[3-(trifluoromethyl)phenyl]-1H-pyrrolo[3,2-b]pyridin-2-yl}pyridin-3-yl)oxy]ethyl}ethenesulfonamide]: 421 nM, 6.66 nM and 2.61 nM.

The values are drawn from patent US20260035365A1, “1H-PYRROLO[3,2-B]PYRIDINE DERIVATIVES AS IRREVERSIBLE INHIBITORS OF MUTANT EGFR FOR THE TREATMENT OF CANCER” (Bayer Aktiengesellschaft, priority 2022, published 2026).
